Laboratory results published in patent publication US20240197692A1, “Combination Comprising Everolimus and Amcenestrant” (Sanofi, priority 2021, published 2024).

What was measured:
[1] = amcenestrant 10 mg/kg BID, everolimus 10 mg/kg BIW, 28 days
Description: The animals required for experiment (plus extra) were pooled and implanted with MCF7 cells. On day 0 (12 days post implantation), the mice were pooled and randomly distributed to the treatment and control groups (10 mice per group), where median tumor volumes for each group was 119 mm^3. Treatments of amcenestrant and everolimus were initiated on day 1. For 28 days, amcenestrant was orally administered at 10 mg/kg BID (8 hours apart), and everolimus was orally administered at 10 mg/kg BIW. Animal body weight was assessed daily.
The dosages are expressed in mg/kg and based on daily body weight per animal. Vehicle treated animals were used as controls. Mice were checked daily for adverse clinical reactions. Individual mice were weighed daily until the end of the experiment. Mice were euthanized when morbid or weight loss ≥20% was observed. Tumors were measured with a caliper twice weekly until final sacrifice. When a tumor size reached approximately 3000 mm^3 or when there were animal health issues (40% area of a tumor ulcerated), animals were euthanized, and date of death recorded. Solid tumor volumes were estimated from two-dimensional tumor measurements and calculated according to the following equation:
Animal body weight included the tumor weight.

[2] = system: orthotopic MCF7 human breast cancer cell line xenograft; test: Anti-tumor efficacy against orthotopic MCF7 human breast cancer cell line xenograft in NOD/SCID mice; type: in vivo, female NOD/SCID mice; conditions: for Tumor volume changes from baseline: Median: amcenestrant 10 mg/kg BID, everolimus 10 mg/kg BIW; for Regressions Complete: animals with complete regression / animals in group; for Regressions Complete / Regressions Partial / Median % of regressions on day 28 / ΔT/ΔC in % at day 28: amcenestrant 10 mg/kg PO BID, everolimus 10 mg/kg PO BIW; for Regressions Partial: animals with partial regression / animals in group; for Biological Interpretation: based on ΔT/ΔC at day 28; for ΔT/ΔC in % at day 28: 28 days
Description: In the present study, the anti-tumor efficacy of amcenestrant combined with everolimus was investigated after 28 days treatment against an orthotopic MCF7 human breast cancer cell line xenograft in female NOD/SCID mice.
The treated groups included amcenestrant at 10 mg/kg alone, everolimus at 10 mg/kg alone, and the combination of amcenestrant and everolimus at the same dose and regime.
For 28 days, amcenestrant was orally dosed twice a day (BID), and everolimus was orally dosed twice a week (BIW). Anti-tumor efficacy was evaluated by tumor volume measurement.
Female NOD/SCID mice were obtained from GemPharmatech Co., Ltd (Nanjing University National Resource Center for Mutant Mice, Model Animal Research Center) (Nanjing, CHINA). Animals were allowed to acclimate for at least four days before the study enrollment. Mice were 7 to 8 weeks old and weighed between 22.5 and 28.4 grams at the beginning of the treatments. These animals were housed under conditions outlined in the guidelines approved by the Institutional Animal Care and Use Committee (IACUC) of CrownBio following the guidance of the Association for Assessment and Accreditation of Laboratory Animal Care (AAALAC).
MCF7 cells were obtained from the American Type Culture Collection (ATCC® HTB-22™). The MCF7 tumor cells were maintained in vitro with MEM medium supplemented with 10% fetal bovine serum, 0.01 mM non-essential amino acid, 0.01 mg/ml bovine insulin, and 2 mM L-glutamine at 37° C. in an atmosphere of 5% CO2 in air. The cells in exponential growth phase were harvested and quantitated by cell counter before tumor inoculation.
The mouse was subcutaneously implanted with estrogen pellets (0.18 mg/pellet, 17β-estradiol, Innovative Research of America, Sarasota, Florida, USA), hereafter referred to as “E2 supplement”, at the right flank one day before the tumor inoculation. Each mouse was inoculated with MCF-7 tumor cells (2×10 e7) in 0.25 ml of PBS/Matrigel (1:1) mixture at the right mammary fat pad for tumor development.
Everolimus (Manufacturer: Selleck; Lot number: S1120) was formulated in 30% propylene glycol (dissolve first): 5% Tween 80: 65% ddH2O (double distilled water).
Dose volume for amcenestrant and everolimus for oral administration: 10 ml/kg.
Doses: amcenestrant at 10 mg/kg and everolimus at 10 mg/kg in the above volume.
Animal body weight was assessed daily.
Vehicle treated animals were used as controls.
The primary efficacy end points include tumor volume changes from baseline summarized by the ratio of medians of tumor volume changes from baseline between the treated and control groups (ΔT/ΔC). Changes in tumor volume for each treated (T) and control (C) group were calculated for each animal on each day by subtracting the tumor volume on the day of first treatment (staging day) from the tumor volume on the specified observation day. The median ΔT was calculated for the treated group and the median ΔC was calculated for the control group. The ratio ΔT/ΔC was calculated and expressed as percentage: […]
Percent tumor regression is defined as % (percentage) of tumor volume decrease in the treated group on a specified observation day compared to its volume when the study was initiated. At a specific time point (t) and for each animal, the regression percentage was calculated using the following formula: […]
The median percent regression for a group on a given day was then calculated by taking the median of individual % regression values calculated for each animal in the group. The day of calculation was determined by the day when ΔT/ΔC is calculated, except if median percent regression was not representative of the activity of the group. In this case, the day was determined by the first day when the median percent regression was maximal.
A two-way analysis of variance (ANOVA) with factors treatment and day (repeated) was performed on tumor volume changes from baseline.

Row | SMILES | Drug-related body weight loss/animal death [1] | Tumor volume changes from baseline: Median ([2]; Day 4) [mm^3] | Tumor volume changes from baseline: Median ([2]; Day 7) [mm^3] | Tumor volume changes from baseline: Median ([2]; Day 11) [mm^3] | Tumor volume changes from baseline: Median ([2]; Day 14) [mm^3] | Tumor volume changes from baseline: Median ([2]; Day 18) [mm^3] | Tumor volume changes from baseline: Median ([2]; Day 21) [mm^3] | Tumor volume changes from baseline: Median ([2]; Day 25) [mm^3] | Tumor volume changes from baseline: Median ([2]; Day 28) [mm^3] | Regressions Complete [2] | Regressions Partial [2] | Biological Interpretation [2] | Median % of regressions on day 28 [2] [%] | ΔT/ΔC in % at day 28 [2] [%]
1 | O=C(O)c1ccc2c(c1)CCCC(c1ccc(Cl)cc1Cl)=C2c1ccc(O[C@H]2CCN(CCCF)C2)cc1 [Amcenestrant, 6-(2,4-dichlorophenyl)-5-[4-[(3S)-1-(3-fluoropropyl)pyrrolidin-3-yl]oxyphenyl]-8,9-dihydro-7H-benzo[7]annulene-2-carboxylic acid] | no drug-related body weight loss/animal death was observed | 22.0 | 32.5 | 60.0 | 76.5 | 40.0 | −2.0 | −38.0 | −42.0 | 0/9 | 8/9 | Very active (ΔT/ΔC<0% is considered as tumor regression (very active)) | −13 | −13
2 | CO[C@H]1C[C@@H]2CC[C@@H](C)[C@@](O)(O2)C(=O)C(=O)N2CCCC[C@H]2C(=O)O[C@H]([C@H](C)C[C@@H]2CC[C@@H](OCCO)[C@H](OC)C2)CC(=O)[C@H](C)/C=C(\C)[C@@H](O)[C@@H](OC)C(=O)[C@H](C)C[C@H](C)/C=C/C=C/C=C/1C [Everolimus] | no drug-related body weight loss/animal death was observed | 28.5 | 48.0 | 65.0 | 81.5 | 10.0 | −48.0 | −47.0 | −53.0 | 0/6 | 5/6 | Very active (ΔT/ΔC<0% is considered as tumor regression (very active)) | −17 | −17
